The structures appear in SMILES notation. Where two headings read alike, the source gives them in different places.

Two molecules from publication PMC5061733, “SpyB, a Small Heme-Binding Protein, Affects the Composition of the Cell Wall in Streptococcus pyogenes” (Frontiers in Cellular and Infection Microbiology, 2016) can be followed below.

In assay [1] the target is T1, SpyB (synthetic SpyB peptide).
T1 construct: chemically synthesized SpyB peptide (GenScript); SpyB is 35 residues; no tag mentioned
Description: tryptophan fluorescence quenching. The format is binding, Streptococcus pyogenes. The settings on record: 5 μM SpyB, 20 mM HEPES, 100 mM NaCl, 1 mM DTT, pH 7.5, 20°C. The text has this: tryptophan fluorescence quenching on SpyB (synthetic SpyB peptide)

For the next assay, the target named is MBP-SpyB. The settings on record: read-out: Hemin, KD; 2.5 μM (Figure 5D; Methods: 5 μM) heme-free monomer, 20 mM HEPES, 100 mM NaCl, 1 mM DTT, pH 7.5, 20°C.

Usually Kd stands for the equilibrium constant for the complex coming apart. Consider `C=CC1=C(C)c2cc3[nH]c(cc4nc(cc5[nH]c(cc1n2)c(C)c5CCC(=O)O)C(CCC(=O)O)=C4C)c(C)c3C=C` [protoporphyrin IX], for which, in assay [1] (read-out: Protoporphyrin IX, KD), the Kd worked out at 4.9 µM.

As for `C=CC1=C(C)C2=Cc3c(C=C)c(C)c4[n]3[Fe]([Cl])[n]3c(c(C)c(CCC(=O)O)c3=CC3=NC(=C4)C(C)=C3CCC(=O)O)=CC1=N2` [hemin], the equilibrium dissociation constant (Kd) in assay [1] (read-out: Hemin, KD) is 2.6 µM; at MBP-SpyB, 12 µM.
